From article PMC5224880, “Discovery and Molecular Basis of a Diverse Set of Polycomb Repressive Complex 2 Inhibitors Recognition by EED” (PLoS ONE, 2017)

Assays:
Assay type in all cases: biochemical
[1] = target: SETD2 (Homo sapiens, UniProt Q9BYW2); assay: HMT panel selectivity: SETD2
Method: (§1) Note: for EZH2, EZH2/EED/SUZ12/RBAP48/AEBP2 was used in the assay; for EZH1, EZH1/EED/SUZ12/RBAP48/AEBP2 was used in the assay; for MLL, MLL/WDR5/RBBP5/ASH2L/ was use in the assay. a, H3K27me0 peptide was used as substrate for both EZH2 and EZH1 activity; b, H3K27me1 peptide was used as substrate for both EZH2 and EZH1 activity. All HMT reactions were performed as described previously. ref: Proc Natl Acad Sci U S A. 2012 Dec 26;109(52):21360-5.

[2] = target: ESET (Homo sapiens, UniProt Q15047); assay: HMT panel selectivity: ESET
Method: as §1

[3] = target: Suv39H2 (Homo sapiens, UniProt Q9H5I1); assay: HMT panel selectivity: Suv39H2
Chain of Suv39H2 (Q9H5I1 whole entry, species assumed): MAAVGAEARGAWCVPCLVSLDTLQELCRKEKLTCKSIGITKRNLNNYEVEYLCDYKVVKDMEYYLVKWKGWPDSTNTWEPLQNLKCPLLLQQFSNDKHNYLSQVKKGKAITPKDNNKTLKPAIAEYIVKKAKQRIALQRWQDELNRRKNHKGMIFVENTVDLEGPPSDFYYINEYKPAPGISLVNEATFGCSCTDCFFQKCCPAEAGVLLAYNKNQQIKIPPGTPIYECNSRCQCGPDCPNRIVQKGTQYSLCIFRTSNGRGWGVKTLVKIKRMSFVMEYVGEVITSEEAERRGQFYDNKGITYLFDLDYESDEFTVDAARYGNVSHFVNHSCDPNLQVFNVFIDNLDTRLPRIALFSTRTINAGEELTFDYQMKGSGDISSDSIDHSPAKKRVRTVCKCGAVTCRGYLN
Method: as §1

[4] = target: T1, SETD6 (Homo sapiens, UniProt Q8TBK2); assay: HMT panel selectivity: SETD6
T1 sequence (Q8TBK2 1-473): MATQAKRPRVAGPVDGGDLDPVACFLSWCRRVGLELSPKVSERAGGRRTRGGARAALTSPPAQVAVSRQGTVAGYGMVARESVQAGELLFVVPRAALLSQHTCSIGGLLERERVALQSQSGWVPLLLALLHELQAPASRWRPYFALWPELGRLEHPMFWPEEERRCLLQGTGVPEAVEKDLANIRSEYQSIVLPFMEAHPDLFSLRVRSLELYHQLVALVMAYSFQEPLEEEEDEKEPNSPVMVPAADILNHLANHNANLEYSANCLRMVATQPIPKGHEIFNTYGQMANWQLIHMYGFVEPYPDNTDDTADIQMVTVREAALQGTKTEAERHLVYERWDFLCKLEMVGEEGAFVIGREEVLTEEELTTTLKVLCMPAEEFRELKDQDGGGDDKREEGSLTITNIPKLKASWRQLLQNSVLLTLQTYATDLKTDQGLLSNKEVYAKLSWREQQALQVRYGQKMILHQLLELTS
Method: as §1

[5] = target: Dot1L (Homo sapiens, UniProt Q8TEK3); assay: HMT panel selectivity: Dot1L
Chain of Dot1L (Q8TEK3 whole entry, species assumed): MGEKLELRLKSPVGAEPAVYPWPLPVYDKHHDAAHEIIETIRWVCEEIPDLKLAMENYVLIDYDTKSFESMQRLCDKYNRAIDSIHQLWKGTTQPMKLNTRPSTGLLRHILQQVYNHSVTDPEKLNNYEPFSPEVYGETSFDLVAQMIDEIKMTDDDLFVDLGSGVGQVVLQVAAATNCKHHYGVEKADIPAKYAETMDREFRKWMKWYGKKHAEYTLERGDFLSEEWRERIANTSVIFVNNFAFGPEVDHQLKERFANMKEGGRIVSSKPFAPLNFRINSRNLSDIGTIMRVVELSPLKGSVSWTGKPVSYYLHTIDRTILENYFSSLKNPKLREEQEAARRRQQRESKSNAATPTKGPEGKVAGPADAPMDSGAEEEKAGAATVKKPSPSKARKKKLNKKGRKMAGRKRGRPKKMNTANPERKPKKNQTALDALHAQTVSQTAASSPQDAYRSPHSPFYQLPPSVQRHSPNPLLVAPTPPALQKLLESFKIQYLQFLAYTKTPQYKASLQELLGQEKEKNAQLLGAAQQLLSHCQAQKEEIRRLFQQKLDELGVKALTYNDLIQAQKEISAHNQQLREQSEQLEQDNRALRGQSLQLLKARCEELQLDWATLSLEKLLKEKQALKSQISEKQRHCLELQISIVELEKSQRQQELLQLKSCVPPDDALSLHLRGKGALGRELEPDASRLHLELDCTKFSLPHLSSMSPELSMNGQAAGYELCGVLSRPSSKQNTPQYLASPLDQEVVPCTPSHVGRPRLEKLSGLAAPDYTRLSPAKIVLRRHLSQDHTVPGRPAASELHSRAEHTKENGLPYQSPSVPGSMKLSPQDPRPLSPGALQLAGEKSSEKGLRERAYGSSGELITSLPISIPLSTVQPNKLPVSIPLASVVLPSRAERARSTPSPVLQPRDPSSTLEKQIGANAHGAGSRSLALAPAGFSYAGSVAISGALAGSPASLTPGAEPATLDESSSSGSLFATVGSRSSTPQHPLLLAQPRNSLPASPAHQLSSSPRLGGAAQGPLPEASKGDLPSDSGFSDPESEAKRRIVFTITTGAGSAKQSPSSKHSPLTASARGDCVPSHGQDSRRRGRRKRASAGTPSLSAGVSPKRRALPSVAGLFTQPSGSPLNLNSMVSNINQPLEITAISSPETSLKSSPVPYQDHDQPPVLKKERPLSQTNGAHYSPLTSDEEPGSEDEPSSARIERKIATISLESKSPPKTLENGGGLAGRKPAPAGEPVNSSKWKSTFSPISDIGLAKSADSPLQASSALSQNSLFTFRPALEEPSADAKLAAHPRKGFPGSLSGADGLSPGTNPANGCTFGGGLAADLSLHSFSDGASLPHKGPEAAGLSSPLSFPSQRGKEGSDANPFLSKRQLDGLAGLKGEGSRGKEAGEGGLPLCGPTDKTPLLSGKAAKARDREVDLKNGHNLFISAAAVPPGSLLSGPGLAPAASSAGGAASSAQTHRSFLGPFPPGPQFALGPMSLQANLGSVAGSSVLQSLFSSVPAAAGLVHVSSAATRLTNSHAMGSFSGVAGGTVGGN
Method: as §1

[6] = target: PRMT3 (Homo sapiens, UniProt O60678); assay: HMT panel selectivity: PRMT3
Chain of PRMT3 (O60678 whole entry, species assumed): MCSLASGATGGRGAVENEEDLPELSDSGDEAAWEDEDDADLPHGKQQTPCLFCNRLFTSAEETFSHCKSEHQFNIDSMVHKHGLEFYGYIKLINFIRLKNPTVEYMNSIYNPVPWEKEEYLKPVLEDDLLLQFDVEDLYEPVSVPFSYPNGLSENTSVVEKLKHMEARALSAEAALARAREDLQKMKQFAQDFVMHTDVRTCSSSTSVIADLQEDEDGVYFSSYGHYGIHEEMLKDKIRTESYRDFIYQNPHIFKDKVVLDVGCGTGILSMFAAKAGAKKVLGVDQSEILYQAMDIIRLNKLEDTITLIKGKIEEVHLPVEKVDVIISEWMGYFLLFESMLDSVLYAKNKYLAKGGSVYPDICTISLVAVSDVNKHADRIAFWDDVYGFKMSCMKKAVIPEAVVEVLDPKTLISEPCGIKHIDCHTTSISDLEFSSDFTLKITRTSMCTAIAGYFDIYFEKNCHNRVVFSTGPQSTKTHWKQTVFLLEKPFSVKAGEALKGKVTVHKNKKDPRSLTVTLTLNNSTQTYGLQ
Method: as §1

[7] = target: T2, NSD2 (Homo sapiens, UniProt O96028); assay: HMT panel selectivity: NSD2
T2 sequence (O96028 1-1365): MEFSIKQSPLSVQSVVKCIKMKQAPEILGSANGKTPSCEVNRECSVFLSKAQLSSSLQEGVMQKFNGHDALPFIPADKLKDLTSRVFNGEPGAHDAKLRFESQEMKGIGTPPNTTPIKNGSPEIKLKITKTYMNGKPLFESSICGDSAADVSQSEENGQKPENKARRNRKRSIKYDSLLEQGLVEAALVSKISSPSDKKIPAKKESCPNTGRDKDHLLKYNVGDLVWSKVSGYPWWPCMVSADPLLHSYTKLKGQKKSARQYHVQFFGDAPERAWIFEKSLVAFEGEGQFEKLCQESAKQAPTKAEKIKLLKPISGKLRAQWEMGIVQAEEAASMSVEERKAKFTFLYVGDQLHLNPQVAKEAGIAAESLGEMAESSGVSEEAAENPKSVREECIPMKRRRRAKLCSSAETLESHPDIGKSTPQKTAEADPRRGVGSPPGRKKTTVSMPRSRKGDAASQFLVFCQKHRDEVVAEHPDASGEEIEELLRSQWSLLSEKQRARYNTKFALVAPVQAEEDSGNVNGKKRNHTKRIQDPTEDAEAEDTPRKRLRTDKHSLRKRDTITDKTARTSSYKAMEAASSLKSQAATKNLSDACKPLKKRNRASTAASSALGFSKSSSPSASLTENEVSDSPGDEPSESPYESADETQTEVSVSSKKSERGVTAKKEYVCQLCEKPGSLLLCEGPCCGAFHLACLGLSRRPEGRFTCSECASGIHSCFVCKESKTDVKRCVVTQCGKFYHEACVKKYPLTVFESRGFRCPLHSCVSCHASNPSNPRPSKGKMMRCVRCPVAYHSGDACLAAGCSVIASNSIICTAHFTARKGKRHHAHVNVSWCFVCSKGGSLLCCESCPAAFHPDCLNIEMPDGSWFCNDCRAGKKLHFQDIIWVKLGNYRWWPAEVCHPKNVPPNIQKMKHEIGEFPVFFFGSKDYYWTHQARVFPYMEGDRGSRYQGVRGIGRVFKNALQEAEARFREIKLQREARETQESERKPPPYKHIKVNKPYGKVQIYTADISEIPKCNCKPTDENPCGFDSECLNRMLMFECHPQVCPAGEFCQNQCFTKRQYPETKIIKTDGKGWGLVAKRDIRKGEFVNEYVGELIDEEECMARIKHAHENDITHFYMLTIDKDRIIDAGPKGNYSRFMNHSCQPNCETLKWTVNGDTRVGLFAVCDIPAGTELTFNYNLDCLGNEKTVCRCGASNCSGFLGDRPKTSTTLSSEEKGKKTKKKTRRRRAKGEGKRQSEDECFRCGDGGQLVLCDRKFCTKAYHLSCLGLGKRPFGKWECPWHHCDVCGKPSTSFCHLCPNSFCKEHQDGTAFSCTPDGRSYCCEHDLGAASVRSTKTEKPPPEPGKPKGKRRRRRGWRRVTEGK
Method: as §1

[8] = target: PRMT1 (Homo sapiens, UniProt Q99873); assay: HMT panel selectivity: PRMT1
Chain of PRMT1 (Q99873 whole entry, species assumed): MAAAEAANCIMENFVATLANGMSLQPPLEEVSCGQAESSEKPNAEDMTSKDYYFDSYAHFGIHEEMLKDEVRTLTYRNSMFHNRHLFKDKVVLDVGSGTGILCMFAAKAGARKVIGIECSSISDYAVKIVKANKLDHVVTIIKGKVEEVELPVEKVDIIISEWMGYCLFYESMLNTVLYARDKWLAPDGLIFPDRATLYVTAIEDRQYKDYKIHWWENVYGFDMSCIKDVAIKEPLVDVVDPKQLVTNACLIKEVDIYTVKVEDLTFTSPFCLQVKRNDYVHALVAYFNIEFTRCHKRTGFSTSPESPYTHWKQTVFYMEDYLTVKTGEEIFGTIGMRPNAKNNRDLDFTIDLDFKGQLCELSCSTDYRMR
Method: as §1

[9] = target: T3, Set7/9 (Homo sapiens, UniProt Q8WTS6); assay: HMT panel selectivity: Set7/9
T3 sequence (Q8WTS6 1-366): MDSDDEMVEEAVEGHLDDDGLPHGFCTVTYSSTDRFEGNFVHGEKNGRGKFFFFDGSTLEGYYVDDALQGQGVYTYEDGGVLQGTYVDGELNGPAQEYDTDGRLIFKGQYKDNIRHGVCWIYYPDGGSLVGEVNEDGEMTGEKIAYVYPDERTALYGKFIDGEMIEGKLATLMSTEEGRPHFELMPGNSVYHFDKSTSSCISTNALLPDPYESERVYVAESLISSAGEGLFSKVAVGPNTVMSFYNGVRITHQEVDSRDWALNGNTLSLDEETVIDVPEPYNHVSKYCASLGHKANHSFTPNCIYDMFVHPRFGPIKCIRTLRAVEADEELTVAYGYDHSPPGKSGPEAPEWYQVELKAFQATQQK
Method: as §1

Measured: IC50

N#Cc1c2c(c3nncn3c1NCc1ccco1)CN(Cc1ccccc1)CC2 [EED162]
> 100 µM: all assays above

COc1cccc(CC2CC3Cc4c(cccc4OC)CC3N(C)C2)c1 (stereo not drawn) [EED210]
> 100 µM: all assays above

COc1cc(-c2cc3n(c(=N)c2C#N)CCc2cc4c(cc2-3)OCO4)ccc1OC(C)C [EED396]
> 100 µM: all assays above

Cc1cc(C)n(-c2cc(N3CCc4ccccc4C3)ccc2[N+](=O)[O-])n1 [EED666]
> 100 µM: all assays above

COc1ccccc1CN1CC(c2cn(C)c3ccccc23)C(N(C)C)C1 (stereo not drawn) [EED709]
> 100 µM: all assays above
